The supplement of paper PMC10307832

Assays:
Assay in all cases: relative viability (nuclei count vs DMSO), 5 days (fraction); higher = more cells survive
A-427 = tested on: A-427
Outline: (§1)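 Lung cancer cell lines were pin-tool dosed in 1536-well plates on the day after seeding, with either a lone drug or a fixed anchor-drug dose plus five library-drug doses (not always all listed) in √10 steps. Nuclei were counted on 4× images after 5 days. Relative viability is the ratio of treated-well to vehicle-well nuclei counts, with each value a median of duplicate plates.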

ABC-1 = tested on: ABC-1
Outline: as §1

COR-L23 = tested on: COR-L23
Outline: as §1

ChaGo-K-1 = tested on: ChaGo-K-1
Outline: as §1

EMC-BAC-2 = tested on: EMC-BAC-2
Outline: as §1

HARA = tested on: HARA
Outline: as §1

HCC-15 = tested on: HCC-15
Outline: as §1

HCC-366 = tested on: HCC-366
Outline: as §1

HCC-78 = tested on: HCC-78
Outline: as §1

LC-2-ad = tested on: LC-2-ad
Outline: as §1

NCI-H1734 = tested on: NCI-H1734
Outline: as §1

NCI-H1793 = tested on: NCI-H1793
Outline: as §1

SMILES: NC(=O)Nc1cc(-c2cccc(F)c2)sc1C(=O)N[C@H]1CCCNC1 [AZD7762] + CS(=O)(=O)N1CCN(Cc2cc3nc(-c4cccc5[nH]ncc45)nc(N4CCOCC4)c3s2)CC1 [Pictilisib] (partner 1 µM)
- relative viability (A-427; first compound 0.01 µM): 0.654
- relative viability (A-427; first compound 0.03162 µM): 0.879
- relative viability (A-427; first compound 0.1 µM): 0.762
- relative viability (A-427; first compound 0.3162 µM): 0.734
- relative viability (A-427; first compound 1 µM): 0.49
- relative viability (ABC-1; first compound 0.01 µM): 0.72
- relative viability (ABC-1; first compound 0.03162 µM): 0.84
- relative viability (ABC-1; first compound 0.1 µM): 0.611
- relative viability (ABC-1; first compound 0.3162 µM): 0.462
- relative viability (ABC-1; first compound 1 µM): 0.245
- relative viability (COR-L23; first compound 0.01 µM): 0.743
- relative viability (COR-L23; first compound 0.03162 µM): 0.86
- relative viability (COR-L23; first compound 0.1 µM): 0.818
- relative viability (COR-L23; first compound 0.3162 µM): 0.68
- relative viability (COR-L23; first compound 1 µM): 0.288
- relative viability (ChaGo-K-1; first compound 0.01 µM): 0.656
- relative viability (ChaGo-K-1; first compound 0.03162 µM): 0.815
- relative viability (ChaGo-K-1; first compound 0.1 µM): 0.846
- relative viability (ChaGo-K-1; first compound 0.3162 µM): 0.675
- relative viability (ChaGo-K-1; first compound 1 µM): 0.562
- relative viability (EMC-BAC-2; first compound 0.01 µM): 0.581
- relative viability (EMC-BAC-2; first compound 0.03162 µM): 0.576
- relative viability (EMC-BAC-2; first compound 0.1 µM): 0.574
- relative viability (EMC-BAC-2; first compound 0.3162 µM): 0.542
- relative viability (EMC-BAC-2; first compound 1 µM): 0.527
- relative viability (HARA; first compound 0.01 µM): 0.346
- relative viability (HARA; first compound 0.03162 µM): 0.435
- relative viability (HARA; first compound 0.1 µM): 0.353
- relative viability (HARA; first compound 0.3162 µM): 0.412
- relative viability (HARA; first compound 1 µM): 0.32
- relative viability (HCC-15; first compound 0.01 µM): 0.713
- relative viability (HCC-15; first compound 0.03162 µM): 0.792
- relative viability (HCC-15; first compound 0.1 µM): 0.875
- relative viability (HCC-15; first compound 0.3162 µM): 0.789
- relative viability (HCC-15; first compound 1 µM): 0.824
- relative viability (HCC-366; first compound 0.01 µM): 0.153
- relative viability (HCC-366; first compound 0.03162 µM): 0.128
- relative viability (HCC-366; first compound 0.1 µM): 0.213
- relative viability (HCC-366; first compound 0.3162 µM): 0.137
- relative viability (HCC-366; first compound 1 µM): 0.133
- relative viability (HCC-78; first compound 0.01 µM): 0.241
- relative viability (HCC-78; first compound 0.03162 µM): 0.228
- relative viability (HCC-78; first compound 0.1 µM): 0.205
- relative viability (HCC-78; first compound 0.3162 µM): 0.213
- relative viability (HCC-78; first compound 1 µM): 0.18
- relative viability (LC-2-ad; first compound 0.01 µM): 0.438
- relative viability (LC-2-ad; first compound 0.03162 µM): 0.39
- relative viability (LC-2-ad; first compound 0.1 µM): 0.321
- relative viability (LC-2-ad; first compound 0.3162 µM): 0.308
- relative viability (LC-2-ad; first compound 1 µM): 0.196
- relative viability (NCI-H1734; first compound 0.01 µM): 0.538
- relative viability (NCI-H1734; first compound 0.03162 µM): 0.535
- relative viability (NCI-H1734; first compound 0.1 µM): 0.524
- relative viability (NCI-H1734; first compound 0.3162 µM): 0.384
- relative viability (NCI-H1734; first compound 1 µM): 0.293
- relative viability (NCI-H1793; first compound 0.01 µM): 0.388
- relative viability (NCI-H1793; first compound 0.03162 µM): 0.371
